Earlier results, collected in article PMC5389743 (Investigative Ophthalmology & Visual Science, 2017).

Legend:
normotensive rabbits = details: 0.4% Δ^8-THC submicron emulsion, after 2 hours
[1] = tested on: α-chymotrypsin–induced rabbit glaucoma model; details: 0.4% Δ^8-THC submicron emulsion, ocular hypertensive rabbits

For `CCCCCc1cc(O)c2c(c1)OC(C)(C)[C@@H]1CC=C(C)C[C@@H]21` [Δ^8-THC], the “Difference between the IOP with and without treatment” value (normotensive rabbits) is listed as 2 mm of Hg and the “Drop of IOP” value [1] is listed as 6.5 mm of Hg.
